Reference: paper PMC9574929, “Development of Hydrogen Sulfide-Releasing Carbonic Anhydrases IX- and XII-Selective Inhibitors with Enhanced Antihyperalgesic Action in a Rat Model of Arthritis” (Journal of Medicinal Chemistry, 2022)

How the values were obtained:
[1] = Spectrophotometric methylene blue H2S release assay in rat liver homogenate; conditions: compound 150 μM, 37 °C
Description: The released H2S, trapped by zinc acetate to form zinc sulfide, reacts with N,N-dimethyl-1,4-phenylenediamine in the presence of iron(III) to yield methylene blue, which can be easily quantified by measuring absorbance at 667 nm (MB^+ form) or at 748 nm (MBH^2+).[42],[43] The compound H2S release in different conditions was monitored over time and quantified according to a calibration curve with Na2S (1–300 μM). Incubation of compound 3 and the hybrid derivatives in phosphate buffer at 37 °C either in the presence or absence of thiol compounds (cysteine or glutathione) produced no or a barely detectable H2S release, respectively. […]
Rat liver was homogenized in ice-cold 50 mM potassium phosphate buffer (pH 7.4).[41] Optimal w/v ratios of 1/20 were determined from preliminary experiments (data not shown). […] The released H2S concentration was measured as described previously.[45] […] Baseline H2S concentration was determined in incubates upon addition of trichloroacetic acid directly to the tissue homogenate in absence of the compound. Thus, N,N-dimethyl-p-phenylenediamine sulfate in HCl 5 M (20 mM; 200 μL) and FeCl3 in HCl 1.2 M (30 mM; 200 μL) were added to the mixture, and the absorbance of the formed methylene blue was measured after 30 min at 25 °C at 667 nm using a Varian Cary 300 UV–Visible spectrophotometer. […]

[2] = test system: rat model of arthritis induced by the intra-articular injection of complete Freund's adjuvant (CFA); test: Incapacitance test, CFA-induced arthritis; format: in vivo
Description: (§1) Articular damage was induced by injection of Complete Freund’s Adjuvant (CFA; Sigma-Aldrich, St Louis, MO, USA), containing 1 mg/mL of heat-killed and dried Mycobacterium tuberculosis in paraffin oil and mannide monooleate, into the tibiotarsal joint.[50] Briefly, the rats were lightly anesthetized with 2% isoflurane, the left leg skin was sterilized with 75% ethyl alcohol, and the lateral malleolus was located by palpation. A 28-gauge needle was then inserted vertically to penetrate the skin and turned distally for insertion into the articular cavity at the gap between the tibiofibular and tarsal bone until a distinct loss of resistance was felt. A volume of 50 μL of CFA was then injected (day 0). Control rats received 50 μL of saline solution (day 0) in the tibiotarsal joint.
(§2) The hybrid derivatives 26, 29, 30, and 31 (1, 10, and 30 mg/kg) were suspended in a 1% solution of carboxymethylcellulose (CMC) sodium salt and acutely per os administered starting from day 14 after CFA i.a. injection, when arthritis was well established. The H2S releaser 3 and CAI 15 were also administered alone or in coadministration at the equimolar dose of compound 30 30 mg/kg (13.23 and 17.71 mg/kg, respectively). The antihypersensitivity effects were evaluated over time by the Paw pressure and Incapacitance tests.
Weight-bearing changes were measured using an incapacitance apparatus (Linton Instrumentation, Norfolk, U.K.) to detect changes in postural equilibrium after a hind limb injury.[53],[54] Rats were trained to stand on their hind paws in a box with an inclined plane (65° from horizontal). This box was placed above the incapacitance apparatus. This allowed us to independently measure the weight that the animal applied on each hind limb. The value reported for each animal is the mean of five consecutive measurements. In the absence of hind limb injury, rats applied an equal weight on both hind limbs, indicating postural equilibrium, whereas an unequal distribution of weight on the hind limbs indicated a monolateral decreased pain threshold. Data are expressed as the difference between the weight applied to the limb contralateral to the injury and the weight applied to the ipsilateral limb (Δ weight).

[3] = test system: rat model of arthritis induced by the intra-articular injection of complete Freund's adjuvant (CFA); test: Paw pressure test, CFA-induced arthritis; format: in vivo
Description: as §1, §2
The nociceptive threshold of rats was determined with an analgesimeter (Ugo Basile, Varese, Italy), according to the method described by Leighton et al.[51] and Maresca et al.,[52] (doi: 10.1111/jphp.12828). Briefly, a constantly increasing pressure was applied to a small area of the dorsal surface of the hind paw using a blunt conical probe by a mechanical device. Mechanical pressure was increased until vocalization or a withdrawal reflex occurred while rats were lightly restrained. Vocalization or withdrawal reflex thresholds were expressed in grams. […]

hCA IV [4] = target: T1, hCA IV (Homo sapiens, UniProt P22748); set-up: made in house; method as in Bonardi et al. [29,30]; conditions: stopped-flow CO2 hydrase assay; Table S1 footnote b; ref Bonardi et al. [29,30]; cited from earlier work
hCA XII [5] = target: T2, hCA XII (Homo sapiens, UniProt O43570); test: Stopped-flow CO2 hydrase assay, hCA XII; conditions: selectivity index, ratio of KIs
Description: (§3) The uncatalyzed rates were determined in the same manner and subtracted from the total observed rates. Stock solutions of inhibitor (0.1 mM) were prepared in distilled-deionized water and dilutions up to 0.01 nM were done thereafter with the assay buffer. […] The inhibition constants were obtained by nonlinear least-squares methods using PRISM 3 and the Cheng–Prusoff equation, as reported earlier,[39] and represent the mean from at least three different determinations.

hCA II [6] = target: T3, hCA II (Homo sapiens, UniProt P00918); test: Stopped-flow CO2 hydrase assay, hCA II; conditions: selectivity index, ratio of KIs
Description: as §3

hCA IX [7] = target: T4, hCA IX (Homo sapiens, UniProt Q16790); set-up: made in house; method as in Bonardi et al. [29,30]; conditions: stopped-flow CO2 hydrase assay; Table S1 footnote b; ref Bonardi et al. [29,30]; cited from earlier work
hCA I = hCA I (Homo sapiens, UniProt P00915); set-up: made in house; method as in Bonardi et al. [29,30]; conditions: stopped-flow CO2 hydrase assay; Table S1 footnote b; ref Bonardi et al. [29,30]; cited from earlier work
hCA IX [8] = target: T4, hCA IX; test: Stopped-flow CO2 hydrase assay, hCA IX; conditions: selectivity index, ratio of KIs
Description: as §3

hCA IV [9] = target: T1, hCA IV; test: Stopped-flow CO2 hydrase assay, hCA IV; conditions: selectivity index, ratio of KIs
Description: as §3

hCA II [10] = target: T3, hCA II; set-up: made in house; method as in Bonardi et al. [29,30]; conditions: stopped-flow CO2 hydrase assay; Table S1 footnote b; ref Bonardi et al. [29,30]; cited from earlier work
hCA XII [11] = target: T2, hCA XII; set-up: made in house; method as in Bonardi et al. [29,30]; conditions: stopped-flow CO2 hydrase assay; Table S1 footnote b; ref Bonardi et al. [29,30]; cited from earlier work
[12] = per os, 3 13.23 mg/kg, 15 17.71 mg/kg

T1 sequence (P22748 19-312): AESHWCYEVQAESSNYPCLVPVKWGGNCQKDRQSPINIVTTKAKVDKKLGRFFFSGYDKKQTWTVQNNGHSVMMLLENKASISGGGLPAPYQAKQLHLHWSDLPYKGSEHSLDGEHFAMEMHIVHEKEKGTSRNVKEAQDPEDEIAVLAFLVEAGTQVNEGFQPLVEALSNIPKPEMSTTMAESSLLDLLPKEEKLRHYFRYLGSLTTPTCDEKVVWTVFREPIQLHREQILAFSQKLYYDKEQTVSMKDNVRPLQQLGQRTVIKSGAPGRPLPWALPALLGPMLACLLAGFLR
T2 sequence (O43570 25-354): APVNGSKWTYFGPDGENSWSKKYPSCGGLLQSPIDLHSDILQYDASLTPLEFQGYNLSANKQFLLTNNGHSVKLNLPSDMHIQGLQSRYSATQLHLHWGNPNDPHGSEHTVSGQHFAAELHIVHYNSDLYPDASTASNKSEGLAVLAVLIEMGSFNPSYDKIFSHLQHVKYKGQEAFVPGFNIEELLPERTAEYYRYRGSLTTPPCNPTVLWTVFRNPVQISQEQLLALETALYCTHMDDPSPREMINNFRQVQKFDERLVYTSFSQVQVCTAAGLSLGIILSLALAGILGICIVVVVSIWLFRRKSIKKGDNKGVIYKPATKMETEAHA
Chain of hCA I (P00915 whole entry): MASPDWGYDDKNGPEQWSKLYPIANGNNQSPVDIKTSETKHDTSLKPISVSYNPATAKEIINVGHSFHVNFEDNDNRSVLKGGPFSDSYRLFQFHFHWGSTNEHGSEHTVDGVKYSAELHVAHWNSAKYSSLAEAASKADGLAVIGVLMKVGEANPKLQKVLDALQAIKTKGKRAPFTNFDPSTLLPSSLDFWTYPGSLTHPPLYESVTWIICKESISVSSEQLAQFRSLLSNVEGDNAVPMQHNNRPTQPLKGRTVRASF

SI CA I/XII (hCA XII [5])	SI CA II/XII (hCA XII [5])	SI CA I/II (hCA II [6])	SI CA I/IX (hCA IX [8])	SI CA II/IX (hCA IX [8])	SI CA I/IV (hCA IV [9])	SI CA II/IV (hCA IV [9])	Structure (SMILES)	time at which H2S release peaked / reached a plateau [1]	time of peak of efficacy, Incapacitance test ([2]; after per os treatment)	antihyperalgesic effect, Incapacitance test, dose equimolar to 30 30 mg/kg [2, 12]	time of peak antihyperalgesic effect, Paw pressure test ([3]; after per os administration)	antihyperalgesic effect, Paw pressure test, dose equimolar to 30 30 mg/kg [3, 12]	Ki (hCA IV [4])	Ki (hCA IX [7])	Ki (hCA I)	Ki (hCA II [10])	Ki (hCA XII [11])
							O=C(O)c1ccc(-c2cssc2=S)cc1 [Compound 3, 4-(3-Thioxo-3H-1,2-dithiol-4-yl)benzoic Acid]	~20 min	15 min	comparable to that of the hybrid analogue 30 at its optimal dose	15 min	rapid antihyperalgesic effect that peaked at 15 min and totally disappeared after 45 min					
0.9	1.4	0.7	1.0	1.5	0.01	0.02	N#CCCNCCc1ccc(S(N)(=O)=O)cc1 [Compound 18, 4-(2-((2-Cyanoethyl)amino)ethyl)benzenesulfonamide]						5.55 µM	105 nM	105 nM	154 nM	113 nM
